Measured values: patent US20240122941A1, “THERAPY BASED ON SYNTHETIC LETHALITY IN SWI/SNF COMPLEX-DYSFUNCTION CANCER” (NATIONAL CANCER CENTER, priority 2020, published 2024)
Read-outs that look alike come from different tables or passages of the source.

How the values were obtained:
[1] = system: H23 cells (pulmonary adenocarcinoma derived, SMARCA2/A4 deficient); test: Cell growth suppression experiment (CellTiter-Glo), H23 cells; type: cell-based; details: for cell survival rate (%) at treatment with 10 μM, H23: 6 days; for IC50: cultured for 6 days, CellTiter-Glo;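 as to all read-outs here: compounds tested as CBP/P300 agents, added one day after plating in 96-well plates with DMEM-F12 plus 10% fetal bovine serum, 0.1% DMSO final, luminescent viability read-out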
[2] = system: DMS114 cells (small cell lung cancer derived, SMARCA2/A4 deficient); test: Cell growth suppression experiment (CellTiter-Glo), DMS114 cells; type: cell-based; details: for IC50: cultured for 6 days, CellTiter-Glo
[3] = system: TOV112D cells (small cell ovarian cancer derived, SMARCA2/A4 deficient); test: Cell growth suppression experiment (CellTiter-Glo), TOV112D cells; type: cell-based; details: for cell survival rate (%) at treatment with 10 μM, TOV112D: 6 days; for IC50: cultured for 6 days, CellTiter-Glo;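 as to all read-outs here: luminescent viability read-out of TOV112D cells grown in DMEM-F12 with 10% fetal bovine serum, compound exposure starting one day after plating, DMSO at 0.1% final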
[4] = system: H460 cells (pulmonary adenocarcinoma derived, SMARCA2/A4 wild-type); test: Cell growth suppression experiment (CellTiter-Glo), H460 cells; type: cell-based; details: for cell survival rate (%) at treatment with 10 μM, H460 / viability at 10 µM: 6 days; for IC50: cultured for 6 days, CellTiter-Glo; for viability at 10 µM: read-out: cell survival rate (%) at treatment with 10 μM, H460;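 as to all read-outs here: luminescent viability read-out, compound added one day after seeding at 0.1% final DMSO, cells grown in DMEM-F12 with 10% fetal bovine serum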
[5] = system: SMARCA2/A4 deficient cells, i.e., H23 cells, DMS114 cells, and TOV112D cells; test: Cell growth suppression experiment, SMARCA2/A4 deficient cells (summary of Example 8); type: cell-based; details: H23, DMS114 and TOV112D cells versus H460 cells; result in words
Protocol: Cytotoxic activity of a CBP/P300 on SMARCA2/A4 deficient cells, i.e., H23 cells (pulmonary adenocarcinoma derived), TOV112D cells (small cell ovarian cancer derived), and DMS114 cells (small cell lung cancer derived), and SMARCA2/A4 wild-type cells, i.e., H460 cells (pulmonary adenocarcinoma derived) was compared.
H23 cells, TOV112D cells, DMS114 cells, and H460 cells were cultured under 5% CO2 conditions at 37° C. in a 10% fetal bovine serum and 1% penicillin/streptomycin-containing DMEM-F12 medium.
Cells were seed on a 96-well plate at 250 to 500 cells per well. […] After completion of culture, the cell survival rate was measured using CellTiter-Glo Luminescent Cell Viability Assay (Promega, G770).

[6] = system: JMU-RTK-2 cells (malignant rhabdoid tumor derived, SMARCB1 deficient); test: Selectivity in cell growth suppression, JMU-RTK-2 cells
Description: (§1) The cytotoxic activity of a CBP/P300 inhibitor on JMU-RTK-2 cells and JMU-RTK-2+SMARCB1 cells was compared.

[7] = system: G-401 cells (malignant rhabdoid tumor derived, SMARCB1 deficient); test: Cell growth suppression experiment (CellTiter-Glo), G-401 cells
Protocol: (§2) G-401 cells and G-402 cells were cultured under the conditions of 5% CO2 at 37° C. in a 10% fetal bovine serum and 1% penicillin/streptomycin-containing McCoy's 5A medium. CHLA-06-ATRT cells were cultured under the conditions of 5% CO2 at 37° C. in a 10% B-27 supplement, 20 ng/mL EGF, 20 ng/mL FGF, and 1% penicillin/streptomycin-containing DMEM:F12 medium.

[8] = system: 786-O cells (renal cancer derived, SMARCB1 wild-type); test: Cell growth suppression experiment (CellTiter-Glo), 786-O cells; details: for IC50: read-out: IC50 786-O; for cell survival rate (%) at treatment with 10 μM, 786-O: 10 μM (maximum treatment concentration), 3 days
Protocol: as §2

[9] = system: JMU-RTK-2+SMARCB1 cells (JMU-RTK-2 cells overexpressing SMARCB1); test: Selectivity in cell growth suppression, JMU-RTK-2+SMARCB1 cells
Description: as §1

[10] = system: SMARCB1 deficient cells, i.e., G-401 cells, G-402 cells, and CHLA-06-ATRT cells; test: Cell growth suppression experiment, SMARCB1 deficient cells (summary of Example 1); details: G-401, G-402 and CHLA-06-ATRT cells versus 786-O cells; result in words
Protocol: as §2

[11] = read-out: JMU-RTK-2 IC50, JMU-RTK-2 cells, cultured for 6 days, CellTiter-Glo
[12] = read-out: IC50 G-401, G-401 cells, cultured for 3 days, CellTiter-Glo cell survival
[13] = read-out: JMU-RTK-2 + SMARCB1 IC50, JMU-RTK-2+SMARCB1 cells, cultured for 6 days, CellTiter-Glo
[14] = 786-O cells, cultured for 3 days, CellTiter-Glo cell survival
[15] = Homo sapiens, DMS-114, 144 h, DMS114 cells
[16] = 144 h, read-out: JMU-RTK-2 IC50, JMU-RTK-2 cells, cultured for 6 days, CellTiter-Glo
[17] = Homo sapiens, G-401, 72 h, read-out: IC50 G-401, G-401 cells, cultured for 3 days, CellTiter-Glo cell survival
[18] = Homo sapiens, 786-0, 72 h, read-out: cell survival rate (%) at treatment with 10 μM, 786-O
[19] = 144 h, read-out: JMU-RTK-2 + SMARCB1 IC50, JMU-RTK-2+SMARCB1 cells, cultured for 6 days, CellTiter-Glo

SMILES	cell survival rate (%) at treatment with 10 μM, H23 [1]	IC50 [1]	IC50 ([2]; DMS114 cells)	cell survival rate (%) at treatment with 10 μM, TOV112D [3]	IC50 [3]	cell survival rate (%) at treatment with 10 μM, H460 [4]	IC50 ([4]; Homo sapiens, NCI-H460, 144 h)	cell growth suppression effect on SMARCA2/A4 deficient cells [5]	IC50 [6, 11]	IC50 [7, 12]	IC50 ([8]; Homo sapiens, 786-0, 72 h)	IC50 [9, 13]	cell growth suppression effect on SMARCB1 deficient cells [10]	IC50 [4]	cell survival rate (%) at treatment with 10 μM, 786-O ([8]; 786-O cells)	IC50 [8, 14]	IC50 ([1]; Homo sapiens, NCI-H23, 144 h)	IC50 [2, 15]	IC50 ([3]; Homo sapiens, TOV112D, 144 h)	viability at 10 µM ([4]; Homo sapiens, NCI-H460, 144 h)	also measured
CNC(=O)Cn1cc(-c2ccc3c(c2)C(F)CC32NC(=O)N(CC(=O)N(Cc3ccc(F)cc3)[C@@H](C)C(F)(F)F)C2=O)cn1 (single isomer, unassigned) [Compound 1]	52%	> 10 µM	4.83 µM	44%	> 10 µM	104%	> 10 µM	particularly selective and potent cell growth suppression effect	2.5 µM	2.7 µM	> 10 µM	27.3 µM	selective and potent Cell growth suppression effect								viability at 10 µM ([8]; Homo sapiens, 786-0, 72 h, read-out: cell survival rate (%) at treatment with 10 μM, 786-O, 786-O cells, 10 μM (maximum treatment concentration), 3 days): 104%
CNC(=O)Cn1cc(-c2ccc3c(c2)C(F)CC32NC(=O)N(CC(=O)N(Cc3ccc(F)cc3)[C@@H](C)C(F)(F)F)C2=O)cn1 (single isomer, unassigned) [Compound 2]	99%	> 10 µM	> 10 µM	96%	> 10 µM	100%		particularly selective and potent cell growth suppression effect	4.8 µM	> 10 µM		20.1 µM		> 10 µM	108%	> 10 µM					cell survival rate (%) at treatment with 10 μM, DMS114 ([2]; DMS114 cells, 10 μM, 6 days): 67%; cell growth suppression effect on DMS114 cells ([2]; result in words): cell growth suppression effect; cell survival rate (%) at treatment with 10 μM, G-401 ([7]; G-401 cells, 10 μM (maximum treatment concentration), 3 days): 62%
CNC(=O)Cn1cc(-c2ccc3c(c2)C(F)CC32NC(=O)N(CC(=O)N(Cc3ccc(F)cc3)[C@@H](C)C(F)(F)F)C2=O)cn1 (single isomer, unassigned) [Compound 3]	49%	> 10 µM	3.44 µM	43%	> 10 µM	105%		particularly selective and potent cell growth suppression effect	2.6 µM	4.9 µM		26.3 µM	selective and potent Cell growth suppression effect	> 10 µM	107%	> 10 µM					
CO[C@H]1CC[C@H](n2c([C@@H]3CCCC(=O)N3c3ccc(F)c(F)c3)nc3cc(-c4c(C)noc4C)ccc32)CC1 [Compound 9]				51%			> 10 µM	particularly selective and potent cell growth suppression effect			> 10 µM		selective and potent Cell growth suppression effect				5.61 µM	1.1 µM	> 10 µM	94%	IC50 [6, 16]: 0.7 µM; IC50 [7, 17]: 2.6 µM; viability at 10 µM [8, 18]: 83%; IC50 [9, 19]: 3.7 µM
COC(=O)N1c2ccc3c(nc(Cc4ccccc4)n3[C@H]3CCC[C@H](C(=O)O)C3)c2CC[C@@H]1C [Compound 10]	53%			84%			> 10 µM	particularly selective and potent cell growth suppression effect			> 10 µM		selective and potent Cell growth suppression effect				> 10 µM	1.43 µM	> 10 µM	95%	IC50 [6, 16]: 1.6 µM; IC50 [7, 17]: 1.8 µM; viability at 10 µM [8, 18]: 82%; IC50 [9, 19]: 5.3 µM
